Drawing on ChEMBL document CHEMBL1149789, “SAR and QSAR studies: modelling of new DAPY derivatives” (Eur J Med Chem, 2008), this text covers EC50 and logP for 31 molecules.

Data set [1] relates to Human immunodeficiency virus. The experiment in a line: Inhibition of HIV reverse transcriptase.
Data set [2] in a line: Partition coefficient, log P of the compound. In kind it is physicochemical. The note with it: octanol/water.

Structures are written as SMILES.

As to `Cc1cc(C)c(Nc2nc(Nc3ccc(C#N)cc3)ncc2Cl)c(C)c1`, the EC50 in data set [1] was 2.7 nM. Besides, the logP in data set [2] (read-out: logP) was 1.8. The molecule `Cc1cc(C#N)cc(C)c1Nc1nc(Nc2ccc(C#N)cc2)ncc1Cl` displayed an EC50 in data set [1] of 1.2 nM. Further, in data set [2] (read-out: logP), the log partition coefficient (logP) amounted to 1.37. In data set [1], `Cc1cc(C)c(Nc2nc(Nc3ccc(C#N)cc3)ncc2Br)c(C)c1` displayed an EC50 of 5.5 nM. In addition, the logP in data set [2] (read-out: logP) is 2.07. The corresponding values for `Cc1cc(Br)c(Nc2ccnc(Nc3ccc(C#N)cc3)n2)c(Br)c1` are 0.7 nM and 1.69. The corresponding values for `Cc1cc(Cl)cc(C)c1Nc1ccnc(Nc2ccc(C#N)cc2)n1` are 2.1 nM and 1.52. Take `CC(=O)Nc1cnc(Nc2ccc(C#N)cc2)nc1Oc1c(C)cc(C#N)cc1C`: the logP in data set [2] (read-out: logP) is -0.12. `N#Cc1ccc(Nc2nccc(Nc3c(Cl)cc(Cl)cc3Cl)n2)cc1` returned an EC50 in data set [1] of 0.7 nM. For the same molecule, in data set [2] (read-out: logP), the logP turned out to be 0.77. The like results for `Cc1cc(C)c(Nc2ccnc(Nc3ccc(C#N)cc3)n2)c(C)c1` [DAPIVIRINE] were, in that order, 1 nM and 1.9. For `C#Cc1cnc(Nc2ccc(C#N)cc2)nc1Nc1c(C)cc(C)cc1C`, the lipophilicity (logP) in data set [2] (read-out: logP) is 1.89. Take `Cc1cc(C#N)cc(C)c1Oc1nc(Nc2ccc(C#N)cc2)nc(N)c1Br` [ETRAVIRINE]: it took 1.4 nM to reach a half-maximal effect in data set [1] (EC50). In data set [2] (read-out: logP), the logP is 1.82. `Cc1cc(C#N)cc(C)c1Oc1nc(Nc2ccc(C#N)cc2)ncc1Br` registered an EC50 in data set [1] of 1.4 nM. For the same molecule, the logP in data set [2] (read-out: logP) is 1.82.

As for `Cc1cc(Br)cc(C)c1Oc1ccnc(Nc2ccc(C#N)cc2)n1`, the midpoint of the response in data set [1], the EC50, lay at 2.9 nM. For the same molecule, in data set [2] (read-out: logP), the logP was 1.97.

The molecule `Cc1cc(C)c(Nc2nc(Nc3ccc(C#N)cc3)ncc2C)c(C)c1` displayed a half-maximal effective concentration (EC50) in data set [1] of 1.7 nM. For the same molecule, the logP in data set [2] (read-out: logP) was determined as 2.17. Take `Cc1cc(C)c(Nc2nc(Nc3ccc(C#N)cc3)ncc2C#N)c(C)c1`: in data set [1], the EC50 came out at 1 nM. Also, the logP in data set [2] (read-out: logP) came out at 1.74. The corresponding values for `C#Cc1cc(C)c(Oc2ccnc(Nc3ccc(C#N)cc3)n2)c(C)c1` are 5.5 nM and 1.79. The like results for `C=Cc1cnc(Nc2ccc(C#N)cc2)nc1Nc1c(C)cc(C#N)cc1C` were, in that order, 2.5 nM and 2.36. The like results for `Cc1cc(C)c(Sc2ccnc(Nc3ccc(C#N)cc3)n2)c(C)c1` were, in that order, 3.6 nM and 2.42. `N#Cc1ccc(Nc2nccc(Nc3c(Br)cc(F)cc3Br)n2)cc1`: it took 0.6 nM to reach a half-maximal effect in data set [1] (EC50). The lipophilicity (logP) in data set [2] (read-out: logP) worked out at 0.94.

Regarding `Cc1cc(C#N)cc(C)c1Oc1ccnc(Nc2ccc(C#N)cc2)n1`, in data set [1], the concentration for a half-maximal effect (EC50) amounted to 1.1 nM. In addition, the logP in data set [2] (read-out: logP) came out at 1.64. In data set [1], `Cc1cc(C)c(Oc2ccnc(Nc3ccc(C#N)cc3)n2)c(C)c1` displayed a 50% effective concentration (EC50) of 2.9 nM. Besides, in data set [2] (read-out: logP), the lipophilicity (logP) came to 2.07. The corresponding values for `Cc1cc(Cl)cc(Cl)c1Nc1ccnc(Nc2ccc(C#N)cc2)n1` are 1 nM and 1.14. Consider `Cc1cc(C#N)cc(C)c1Oc1nc(Nc2ccc(C#N)cc2)ncc1[N+](=O)[O-]`, for which, in data set [1], the midpoint of the response, the EC50, lay at 18 nM. The molecule also showed a logP in data set [2] of -0.98.

As to `Cc1cnc(Nc2ccc(C#N)cc2)nc1Nc1c(C)cc(C#N)cc1C`, in data set [1], a half-maximal response (EC50) required 0.8 nM. Further, the lipophilicity (logP) in data set [2] (read-out: logP) amounted to 1.74. In the case of `Cc1cc(Br)cc(C)c1Sc1ccnc(Nc2ccc(C#N)cc2)n1`, in data set [1], the response was half-maximal at 5.7 nM (EC50). For the same molecule, the lipophilicity (logP) in data set [2] (read-out: logP) was 2.31.

For the molecule `Cc1cc(Br)cc(C)c1Nc1ccnc(Nc2ccc(C#N)cc2)n1`, a half-maximal response in data set [1] (EC50) required 2.3 nM. In data set [2] (read-out: logP), the logP amounted to 1.79.

`Cc1cc(C#N)cc(C)c1Nc1nc(Nc2ccc(C#N)cc2)ncc1Br` had an EC50 in data set [1] of 0.4 nM. Moreover, in data set [2] (read-out: logP), the logP is 1.64. The like results for `Cc1cc(C#N)cc(C)c1Oc1nc(Nc2ccc(C#N)cc2)ncc1N` were, in that order, 1 nM and 0.05. Take `Cc1cc(C#N)cc(C)c1Nc1ccnc(Nc2ccc(C#N)cc2)n1`: the midpoint of the response in data set [1], the EC50, lay at 0.4 nM. For the same molecule, in data set [2] (read-out: logP), the logP is 1.47.

With `Cc1cc(C#N)cc(C)c1Oc1nc(Nc2ccc(C#N)cc2)ncc1Cl`, in data set [1], the EC50 came out at 1.4 nM. Besides, in data set [2] (read-out: logP), the logP is 1.54. The like results for `Cc1cc(C#N)cc(C)c1Nc1nc(Nc2ccc(C#N)cc2)ncc1C#N` were, in that order, 0.5 nM and 1.31. As for `Cc1cccc(C)c1Nc1ccnc(Nc2ccc(C#N)cc2)n1`, it took 0.7 nM to reach a half-maximal effect in data set [1] (EC50). Moreover, in data set [2] (read-out: logP), the log partition coefficient (logP) came out at 1.74.
